The test system of experiment [1] is HCT-116. Kind of experiment: Cytotoxicity against human HCT116 cells assessed as reduction in cell viability by WST1 assay.
Experiment [2] relates to HCT-116. Kind of experiment: Inhibition of colony formation in human HCT116 cells.
Experiment [3] deals with U-87 MG. Kind of experiment: Inhibition of colony formation in human U87MG cells.
Experiment [4] relates to U-87 MG. Kind of experiment: Cytotoxicity against human U87MG cells assessed as reduction in cell viability by WST1 assay.
Experiment [5] deals with U-87 MG. The conditions noted are these: Homo sapiens; U-87MG ATCC.

In the case of `COc1cc(Nc2nnc(Cl)c(Nc3cccc(NS(C)(=O)=O)c3)n2)cc(OC)c1OC`, the IC50 in experiment [1] amounted to 14.8 µM; in experiment [2] it was 0.06 µM; in experiment [3], 0.07 µM; in experiment [4] it was 12.5 µM. Moreover, the inhibition result in experiment [5] was “Dose-dependent effect”.
The corresponding values for `CNC(=O)c1ccccc1Nc1nc(Nc2cc(OC)c(OC)c(OC)c2)nnc1Cl` are 14.9 µM, 2.1 µM, 1.7 µM, 17 µM and “Dose-dependent effect”.
Consider `CNC(=O)c1ccccc1Nc1nc(Nc2ccc(N3CCOCC3)cc2OC)ncc1Cl`, for which the IC50 in experiment [1] is 0.39 µM; in experiment [2], 0.27 µM; in experiment [3] it was 0.17 µM; in experiment [4] it was 1.3 µM.
On to `CNC(=O)c1ccccc1Nc1nc(Nc2ccc(N3CCOCC3)cc2OC)nnc1Cl`, for which the IC50 in experiment [1] came to 0.19 µM; in experiment [2] it was 1 µM; in experiment [3], 1.5 µM; in experiment [4], 13.3 µM. Besides, the inhibition result in experiment [5] is “Dose-dependent effect”.
The like results for `CNC(=O)c1ccccc1Nc1nc(Nc2cc(C)c(Cl)cc2OC)nnc1Cl` were, in that order, 5.8 µM, 4.5 µM, 0.5 µM, 9.2 µM and “Dose-dependent effect”.
The corresponding values for `CNC(=O)c1ccccc1Nc1nc(Nc2ccc(N3CCOCC3)cc2)nnc1Cl` are 0.5 µM, 1.7 µM, 0.7 µM, 10.1 µM and “Dose-dependent effect”.
In the case of `CNC(=O)c1ccccc1Nc1nc(Nc2ccc(CN)cc2)nnc1Cl`, the IC50 in experiment [1] is 1.8 µM; in experiment [2], 1.1 µM; in experiment [3] it was 0.014 µM; in experiment [4], 2.4 µM. The inhibition result in experiment [5] was “Dose-dependent effect”.

The record behind these values is ChEMBL document CHEMBL4007480, “Synthesis of novel 1,2,4-triazine scaffold as FAK inhibitors with antitumor activity” (Bioorg Med Chem Lett, 2017).
